Assay results published in article PMC6115767, “Soybean- and Lupin-Derived Peptides Inhibit DPP-IV Activity on In Situ Human Intestinal Caco-2 Cells and Ex Vivo Human Serum” (Nutrients, 2018).
No end group written: not given here.

Experiments:
[1] = cited from earlier work
[2] = biological target: T1, circulating DPP-IV in human serum (Homo sapiens, UniProt P27487); test: Ex vivo circulating DPP-IV activity assay in human serum (Gly-Pro-AMC); format: biochemical; conditions: 24 h at 37 °C, 50 µM Gly-Pro-AMC final, three experiments in triplicate
T1 construct: a soluble form of DPP-IV lacking the cytoplasmic and transmembrane domains is present in plasma and other body fluids; from tissue; host or cells: human serum from a healthy volunteer
T1 sequence (P27487 39-766 limits assumed): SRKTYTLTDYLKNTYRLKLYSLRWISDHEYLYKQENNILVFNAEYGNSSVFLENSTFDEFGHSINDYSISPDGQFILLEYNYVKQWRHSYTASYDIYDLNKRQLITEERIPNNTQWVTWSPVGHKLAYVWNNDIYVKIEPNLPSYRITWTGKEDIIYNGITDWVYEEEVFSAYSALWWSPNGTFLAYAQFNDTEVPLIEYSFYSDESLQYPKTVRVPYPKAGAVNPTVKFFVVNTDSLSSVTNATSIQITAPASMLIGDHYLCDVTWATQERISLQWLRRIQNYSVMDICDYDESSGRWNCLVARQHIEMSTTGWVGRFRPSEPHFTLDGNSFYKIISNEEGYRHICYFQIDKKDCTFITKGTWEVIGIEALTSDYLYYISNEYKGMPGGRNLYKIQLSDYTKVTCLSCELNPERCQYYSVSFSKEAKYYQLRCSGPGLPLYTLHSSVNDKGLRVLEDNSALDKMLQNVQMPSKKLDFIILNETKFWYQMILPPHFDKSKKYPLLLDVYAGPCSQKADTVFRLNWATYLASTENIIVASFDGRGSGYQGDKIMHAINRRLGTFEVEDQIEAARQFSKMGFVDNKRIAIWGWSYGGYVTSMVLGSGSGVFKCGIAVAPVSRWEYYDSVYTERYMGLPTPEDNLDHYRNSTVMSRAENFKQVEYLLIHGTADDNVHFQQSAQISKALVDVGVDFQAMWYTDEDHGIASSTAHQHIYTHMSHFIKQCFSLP
Experimental: Human serum samples prepared from freshly collected venous blood from a healthy volunteer were aliquoted 40 µL/well in black 96-well plates and 10 µL of each inhibitor were added for 24 h at 37 °C. […] Subsequently, 50 µL of 100 µM Gly-Pro-AMC was added to each well to achieve a final substrate concentration of 50 µM.

intestinal Caco-2 cells = conditions: cited from earlier work
Experimental: Considered all of these aspects, using live intestinal Caco-2 cells, experiments were performed to investigate in detail the ability of Lup1 and Soy1 to inhibit DPP-IV activity, in the presence of BB proteolytic activity.

[3] = biological target: T2, DPP-IV (in situ, human intestinal Caco-2 cells) (Homo sapiens, UniProt P27487); test: In situ DPP-IV activity assay on 2-, 4- and 6-day Caco-2 cells (Gly-Pro-AMC); conditions: for reduction of in situ DPP-IV activity vs control: 2-day Caco-2 cells, 100 µM peptide, 1 h pre-incubation, 50 µM Gly-Pro-AMC, 10 min, three experiments in triplicate
T2 sequence (P27487 whole entry): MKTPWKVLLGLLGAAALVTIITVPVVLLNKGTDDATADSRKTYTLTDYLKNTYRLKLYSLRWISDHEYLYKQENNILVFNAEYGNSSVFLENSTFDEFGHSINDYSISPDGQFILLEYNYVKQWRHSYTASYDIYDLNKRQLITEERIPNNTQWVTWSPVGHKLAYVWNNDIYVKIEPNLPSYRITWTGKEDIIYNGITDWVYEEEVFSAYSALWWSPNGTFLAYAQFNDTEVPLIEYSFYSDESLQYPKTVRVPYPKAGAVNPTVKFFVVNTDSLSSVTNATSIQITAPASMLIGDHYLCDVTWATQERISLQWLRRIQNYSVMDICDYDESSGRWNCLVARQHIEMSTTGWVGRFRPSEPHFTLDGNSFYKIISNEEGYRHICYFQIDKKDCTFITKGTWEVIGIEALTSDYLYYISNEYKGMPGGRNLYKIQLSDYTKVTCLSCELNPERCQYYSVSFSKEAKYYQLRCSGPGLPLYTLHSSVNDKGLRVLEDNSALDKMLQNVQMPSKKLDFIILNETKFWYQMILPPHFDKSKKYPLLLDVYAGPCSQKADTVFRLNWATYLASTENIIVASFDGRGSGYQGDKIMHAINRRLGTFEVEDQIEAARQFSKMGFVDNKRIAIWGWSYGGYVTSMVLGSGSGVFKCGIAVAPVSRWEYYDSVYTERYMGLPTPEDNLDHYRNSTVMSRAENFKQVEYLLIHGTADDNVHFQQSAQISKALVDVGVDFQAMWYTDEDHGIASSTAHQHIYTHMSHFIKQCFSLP
Experimental: (§1) Caco-2 cells, obtained from INSERM (Paris, France), were routinely sub-cultured at 50% density [22] and maintained at 37 °C in a 90% air/10% CO2 atmosphere in DMEM containing 25 mM of glucose, 3.7 g/L of NaHCO3, 4 mM of stable L-glutamine, 1% nonessential amino acids, 100 U/L of penicillin, and 100 µg/L of streptomycin (complete medium), supplemented with 10% heat-inactivated fetal bovine serum (FBS; Hyclone Laboratories, Logan, UT, USA).
(§2) The medium was regularly changed three times a week. Caco-2 cells DPP-IV activity was assayed on days 2, 4, and 6 from seeding.

[4] = biological target: T2, DPP-IV (in situ, human intestinal Caco-2 cells)
Experimental: as §1, §2

| Molecule | absorption in vivo (in words) [1] | decrease of circulating DPP-IV activity vs control ([2]; 100 µM peptide) | decrease of circulating DPP-IV activity vs control ([2]; 300 µM peptide) | stability to apical proteases (in words) (intestinal Caco-2 cells; differentiated Caco-2 cells, apical proteases, after 4 h of incubation) | absorption by Caco-2 cells (in words) (intestinal Caco-2 cells; differentiated intestinal Caco-2 cells) | IC50 [3] | in situ IC50 compared with in vitro IC50 (in words) ([3]; 2-day Caco-2 IC50 vs in vitro purified enzyme IC50) | reduction of in situ DPP-IV activity vs control [3] | in situ IC50 compared with in vitro IC50 [4] | breakdown fragments formed (intestinal Caco-2 cells; Caco-2 cells, already after 2 h of incubation) | susceptibility to intestinal endopeptidases (in words) (intestinal Caco-2 cells; Caco-2 cells) |
| --- | --- | --- | --- | --- | --- | --- | --- | --- | --- | --- | --- |
| N[C@@H](CC(=O)N1CCn2c(nnc2C(F)(F)F)C1)Cc1cc(F)c(F)cc1F [sitagliptin, Sitagliptin] | rapidly absorbed | – | – | – | – | – | – | – | – | – | – |
| LTFPGSAED [Lup1] | – | 18.1% | 24.7% | not degraded | absorbed intact | 207 µM | in agreement with that obtained with the in vitro assay | 50% | – | – | – |
| IAVPTGVA [Soy1] | – | 27.7% | 35.0% | – | – | 223 µM | – | 50% | 2 fold | IAVPT and AVPTGVA | susceptible to the action of intestinal endopeptidases |
